Assay [1] addresses T1, Alpha-1A adrenergic receptor (Homo sapiens, UniProt P35348).
T1 sequence (P35348 whole entry): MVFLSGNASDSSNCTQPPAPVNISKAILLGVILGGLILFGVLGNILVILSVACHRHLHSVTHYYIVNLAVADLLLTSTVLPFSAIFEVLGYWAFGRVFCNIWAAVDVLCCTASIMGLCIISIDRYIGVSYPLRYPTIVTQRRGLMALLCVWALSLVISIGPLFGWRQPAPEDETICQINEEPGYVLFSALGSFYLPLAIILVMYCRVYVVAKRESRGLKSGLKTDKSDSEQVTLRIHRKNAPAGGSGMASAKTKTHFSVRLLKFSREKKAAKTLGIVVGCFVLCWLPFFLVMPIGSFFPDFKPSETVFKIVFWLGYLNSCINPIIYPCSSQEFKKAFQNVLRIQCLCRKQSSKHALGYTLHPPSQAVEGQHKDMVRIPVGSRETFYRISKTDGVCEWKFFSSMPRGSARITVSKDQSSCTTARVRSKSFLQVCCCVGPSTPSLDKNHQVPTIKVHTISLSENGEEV
It counts as functional, cell-based.

In assay [2] the target is T2, Gastrin/cholecystokinin type B receptor (Homo sapiens, UniProt P32239).
T2 sequence (P32239 whole entry): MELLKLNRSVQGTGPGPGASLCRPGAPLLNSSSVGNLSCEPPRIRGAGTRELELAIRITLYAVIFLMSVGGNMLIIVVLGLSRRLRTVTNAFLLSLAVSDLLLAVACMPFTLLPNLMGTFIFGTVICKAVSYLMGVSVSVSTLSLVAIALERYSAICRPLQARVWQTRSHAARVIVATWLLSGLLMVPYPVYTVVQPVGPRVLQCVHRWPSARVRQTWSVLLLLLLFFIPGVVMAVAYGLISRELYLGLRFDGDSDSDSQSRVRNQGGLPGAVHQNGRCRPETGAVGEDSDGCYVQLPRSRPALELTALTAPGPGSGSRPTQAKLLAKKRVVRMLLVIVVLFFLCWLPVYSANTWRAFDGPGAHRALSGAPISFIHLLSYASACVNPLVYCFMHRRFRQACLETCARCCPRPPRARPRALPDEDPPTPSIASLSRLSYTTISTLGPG

For another assay, the target named is Cannabinoid receptor 1 (Homo sapiens, UniProt P21554). It counts as functional, cell-based.
The target in a further assay is T3, Endothelin-1 receptor (Homo sapiens, UniProt P25101).
T3 sequence (P25101 whole entry): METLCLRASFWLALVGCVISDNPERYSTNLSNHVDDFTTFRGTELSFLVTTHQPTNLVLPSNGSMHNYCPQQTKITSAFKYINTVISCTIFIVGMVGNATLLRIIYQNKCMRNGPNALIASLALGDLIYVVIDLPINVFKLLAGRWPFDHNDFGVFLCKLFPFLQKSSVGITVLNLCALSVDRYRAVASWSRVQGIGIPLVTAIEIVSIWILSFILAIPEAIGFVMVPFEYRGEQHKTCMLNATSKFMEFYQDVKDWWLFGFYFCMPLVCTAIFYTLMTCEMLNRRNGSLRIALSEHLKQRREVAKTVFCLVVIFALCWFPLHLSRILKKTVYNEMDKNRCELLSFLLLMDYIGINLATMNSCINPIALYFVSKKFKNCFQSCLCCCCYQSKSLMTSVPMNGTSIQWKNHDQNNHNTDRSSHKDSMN

In assay [3] the target is 5-hydroxytryptamine receptor 2A (Homo sapiens, UniProt P28223). It counts as functional, cell-based.
A further assay deals with Mu-type opioid receptor (Homo sapiens, UniProt P35372). The assay is described as follows: biochemical. It counts as functional.
For another assay, the target named is T4, Progesterone receptor (Homo sapiens, UniProt P06401).
T4 sequence (P06401 whole entry): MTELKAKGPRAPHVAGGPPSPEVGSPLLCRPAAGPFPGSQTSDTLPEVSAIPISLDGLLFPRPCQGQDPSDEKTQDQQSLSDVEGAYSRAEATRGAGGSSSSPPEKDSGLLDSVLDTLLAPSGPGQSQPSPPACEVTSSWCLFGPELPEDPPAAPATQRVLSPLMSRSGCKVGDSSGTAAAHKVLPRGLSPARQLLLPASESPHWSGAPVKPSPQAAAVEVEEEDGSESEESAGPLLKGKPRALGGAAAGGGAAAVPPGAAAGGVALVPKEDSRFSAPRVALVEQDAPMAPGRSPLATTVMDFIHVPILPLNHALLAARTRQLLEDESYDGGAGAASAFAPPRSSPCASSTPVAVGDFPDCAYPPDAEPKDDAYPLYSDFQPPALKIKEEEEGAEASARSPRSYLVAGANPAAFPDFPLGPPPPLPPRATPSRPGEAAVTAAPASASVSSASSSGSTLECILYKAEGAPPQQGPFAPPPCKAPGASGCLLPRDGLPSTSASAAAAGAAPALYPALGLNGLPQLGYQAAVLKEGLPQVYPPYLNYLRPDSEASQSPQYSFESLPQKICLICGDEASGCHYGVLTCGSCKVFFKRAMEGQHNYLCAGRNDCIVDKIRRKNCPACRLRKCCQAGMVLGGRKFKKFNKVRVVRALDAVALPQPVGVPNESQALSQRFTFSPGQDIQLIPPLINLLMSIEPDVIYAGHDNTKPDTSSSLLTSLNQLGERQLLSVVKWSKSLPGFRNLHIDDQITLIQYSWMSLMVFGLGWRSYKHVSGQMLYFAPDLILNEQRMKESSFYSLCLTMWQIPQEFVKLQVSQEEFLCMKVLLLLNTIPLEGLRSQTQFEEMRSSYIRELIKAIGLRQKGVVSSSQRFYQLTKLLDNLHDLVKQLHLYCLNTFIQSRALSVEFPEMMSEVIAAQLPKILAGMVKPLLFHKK
It counts as functional.

Assay [4] deals with T5, Amine oxidase [flavin-containing] A (Homo sapiens, UniProt P21397).
T5 sequence (P21397 whole entry): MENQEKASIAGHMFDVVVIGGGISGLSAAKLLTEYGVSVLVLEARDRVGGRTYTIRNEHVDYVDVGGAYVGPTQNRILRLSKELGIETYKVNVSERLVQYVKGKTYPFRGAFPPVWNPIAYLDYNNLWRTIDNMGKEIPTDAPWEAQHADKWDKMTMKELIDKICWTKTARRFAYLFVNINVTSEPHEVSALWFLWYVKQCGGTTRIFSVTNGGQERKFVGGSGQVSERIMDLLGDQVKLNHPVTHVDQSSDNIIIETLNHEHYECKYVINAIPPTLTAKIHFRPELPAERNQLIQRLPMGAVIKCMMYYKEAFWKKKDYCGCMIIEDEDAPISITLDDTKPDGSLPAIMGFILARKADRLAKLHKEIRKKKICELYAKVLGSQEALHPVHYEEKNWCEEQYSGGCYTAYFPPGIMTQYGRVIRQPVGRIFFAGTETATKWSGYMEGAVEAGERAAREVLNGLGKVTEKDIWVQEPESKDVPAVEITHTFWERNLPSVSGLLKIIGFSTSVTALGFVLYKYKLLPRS
It counts as functional.

This passage reports AC50 results from ChEMBL document CHEMBL5291721, “A preclinical secondary pharmacology resource illuminates target-adverse drug reaction associations of marketed drugs” (Nat Commun, 2023).

Some results are limits rather than exact numbers.
Note: assay procedure not described here.

Chain of Cannabinoid receptor 1 (P21554 whole entry): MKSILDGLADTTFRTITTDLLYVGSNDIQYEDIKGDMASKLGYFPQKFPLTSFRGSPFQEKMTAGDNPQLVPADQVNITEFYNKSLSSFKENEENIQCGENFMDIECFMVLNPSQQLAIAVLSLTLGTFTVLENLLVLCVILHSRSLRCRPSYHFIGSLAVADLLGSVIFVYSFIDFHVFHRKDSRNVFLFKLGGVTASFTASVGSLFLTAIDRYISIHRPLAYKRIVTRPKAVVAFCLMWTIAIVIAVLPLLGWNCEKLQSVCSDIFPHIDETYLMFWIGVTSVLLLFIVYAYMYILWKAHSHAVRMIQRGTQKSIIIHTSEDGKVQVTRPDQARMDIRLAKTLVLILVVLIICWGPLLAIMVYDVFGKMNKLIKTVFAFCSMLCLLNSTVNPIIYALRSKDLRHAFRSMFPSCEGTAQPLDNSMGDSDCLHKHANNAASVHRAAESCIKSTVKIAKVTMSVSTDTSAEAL
Chain of Mu-type opioid receptor (P35372 whole entry): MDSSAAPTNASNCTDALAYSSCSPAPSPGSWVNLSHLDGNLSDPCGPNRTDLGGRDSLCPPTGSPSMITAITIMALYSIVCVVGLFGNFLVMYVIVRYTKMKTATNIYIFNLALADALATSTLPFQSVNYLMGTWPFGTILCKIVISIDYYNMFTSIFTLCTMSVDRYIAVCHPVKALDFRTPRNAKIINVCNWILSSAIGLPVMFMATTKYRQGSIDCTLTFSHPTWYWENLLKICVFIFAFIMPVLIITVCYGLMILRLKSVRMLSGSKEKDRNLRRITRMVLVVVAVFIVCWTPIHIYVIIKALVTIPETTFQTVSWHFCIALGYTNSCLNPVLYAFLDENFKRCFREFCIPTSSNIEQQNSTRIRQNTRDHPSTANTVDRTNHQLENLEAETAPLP
Chain of 5-hydroxytryptamine receptor 2A (P28223 whole entry): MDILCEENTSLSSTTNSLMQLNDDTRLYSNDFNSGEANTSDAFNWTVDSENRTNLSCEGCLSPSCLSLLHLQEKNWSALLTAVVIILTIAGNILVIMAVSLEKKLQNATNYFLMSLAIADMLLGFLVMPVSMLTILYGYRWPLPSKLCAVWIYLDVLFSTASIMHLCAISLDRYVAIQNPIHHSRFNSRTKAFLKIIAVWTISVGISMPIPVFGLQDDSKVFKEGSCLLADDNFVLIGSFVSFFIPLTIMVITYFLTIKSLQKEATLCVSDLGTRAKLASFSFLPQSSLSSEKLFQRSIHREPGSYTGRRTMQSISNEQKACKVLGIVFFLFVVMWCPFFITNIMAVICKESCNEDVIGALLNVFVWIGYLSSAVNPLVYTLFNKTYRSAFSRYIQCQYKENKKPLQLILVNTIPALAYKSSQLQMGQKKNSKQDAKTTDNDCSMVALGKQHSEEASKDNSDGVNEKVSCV

Consider `COc1ccc(-c2ccc3cc(C(=O)O)ccc3c2)cc1C12CC3CC(CC(C3)C1)C2`, for which the AC50 (in assay [1]; in assay [2]; on Cannabinoid receptor 1; at Endothelin-1 receptor; in assay [3]; on Mu-type opioid receptor) was greater than 30 µM each time. The AC50 (on Progesterone receptor; in assay [4]) was greater than 30 µM each time.
As for `COc1ccccc1N1CCN(CCCNc2cc(=O)n(C)c(=O)n2C)CC1`, the half-maximal activity concentration (AC50) (in assay [1]; in assay [2]; at Cannabinoid receptor 1; at Endothelin-1 receptor; in assay [3]; on Mu-type opioid receptor) was greater than 30 µM in each case. The AC50 (at Progesterone receptor; in assay [4]) was greater than 30 µM each time.
Regarding `CCOC(=O)[C@H](CCc1ccccc1)N[C@@H](C)C(=O)N1C(=O)N(C)C[C@H]1C(=O)O`, the AC50 (in assay [1]; in assay [2]; at Cannabinoid receptor 1; at Endothelin-1 receptor; in assay [3]; on Mu-type opioid receptor) was greater than 30 µM throughout. Besides, the half-maximal activity concentration (AC50) (at Progesterone receptor; in assay [4]) was greater than 30 µM in each case.
Turning to `O=C(O)CCCCCCNC1c2ccccc2CCc2ccccc21` [AMINEPTINE], the AC50 (in assay [1]; in assay [2]; at Cannabinoid receptor 1; at Endothelin-1 receptor; in assay [3]; on Mu-type opioid receptor) was greater than 30 µM in each case. In addition, the AC50 (at Progesterone receptor; in assay [4]) was greater than 30 µM each time.
Regarding `NCC(=O)CCC(=O)O` [AMINOLEVULINIC ACID], the half-maximal activity concentration (AC50) (in assay [1]; in assay [2]; on Cannabinoid receptor 1; on Endothelin-1 receptor; in assay [3]; at Mu-type opioid receptor) was greater than 30 µM each time. The half-maximal activity concentration (AC50) (at Progesterone receptor; in assay [4]) was greater than 30 µM each time.
As for `COc1ccccc1OCCNCC(O)c1ccc(C)c(S(N)(=O)=O)c1` (centres undefined) [AMOSULALOL], the AC50 (commonly the concentration giving half of the maximal activity seen) in assay [1] is 0.32 µM; in assay [2], greater than 30 µM; at Cannabinoid receptor 1, greater than 30 µM; at Endothelin-1 receptor it was greater than 30 µM; in assay [3] it was 7.7 µM; on Mu-type opioid receptor it was greater than 30 µM. Also, the AC50 (on Progesterone receptor; in assay [4]) was greater than 30 µM each time.
On to `CO/N=C(\C(=O)N[C@@H]1C(=O)N2C(C(=O)O)=C(CSc3nnnn3C)CS[C@H]12)c1csc(N)n1` [CEFMENOXIME], for which the half-maximal activity concentration (AC50) (in assay [1]; in assay [2]; on Cannabinoid receptor 1; at Endothelin-1 receptor; in assay [3]; on Mu-type opioid receptor) was greater than 30 µM throughout. The concentration at half-maximal activity (AC50) (on Progesterone receptor; in assay [4]) was greater than 30 µM in each case.
On to `CCN1CCN(C(=O)N[C@@H](C(=O)N[C@@H]2C(=O)N3C(C(=O)O)=C(CSc4nnnn4C)CS[C@H]23)c2ccc(O)cc2)C(=O)C1=O` [CEFOPERAZONE], for which the AC50 (in assay [1]; in assay [2]; on Cannabinoid receptor 1; on Endothelin-1 receptor; in assay [3]; at Mu-type opioid receptor) was greater than 30 µM each time. In assay [4], this compound had an AC50 greater than 30 µM.
With `CC(=O)OCC(=O)[C@@]12N=C(C)O[C@@H]1C[C@H]1[C@@H]3CCC4=CC(=O)C=C[C@]4(C)[C@H]3[C@@H](O)C[C@@]12C` [DEFLAZACORT], the half-maximal activity concentration (AC50) (in assay [1]; in assay [2]; on Cannabinoid receptor 1; at Endothelin-1 receptor; in assay [3]; at Mu-type opioid receptor) was greater than 30 µM each time. The results for the AC50 (at Progesterone receptor; in assay [4]) were 3.7 µM and greater than 30 µM, respectively.
For `CCCCCCOc1ccccc1C(N)=O` [EXALAMIDE], the AC50 (in assay [1]; in assay [2]; on Cannabinoid receptor 1; at Endothelin-1 receptor; in assay [3]; at Mu-type opioid receptor) was greater than 30 µM throughout. The half-maximal activity concentration (AC50) (on Progesterone receptor; in assay [4]) was greater than 30 µM each time.
In the case of `COc1ccc(CCN(C)CCCC(C#N)(c2cc(OC)c(OC)c(OC)c2)C(C)C)cc1OC` (centres undefined) [GALLOPAMIL], the AC50 in assay [1] is greater than 30 µM; in assay [2], greater than 30 µM; at Cannabinoid receptor 1, greater than 30 µM; on Endothelin-1 receptor, greater than 30 µM; in assay [3], 3.6 µM; on Mu-type opioid receptor it was greater than 30 µM. Also, the AC50 (on Progesterone receptor; in assay [4]) was greater than 30 µM throughout.
Take `CC(C)C(=O)c1c(C(C)C)nn2ccccc12` [IBUDILAST]: the AC50 (in assay [1]; in assay [2]; on Cannabinoid receptor 1; at Endothelin-1 receptor; in assay [3]; at Mu-type opioid receptor) was greater than 30 µM in each case. At Progesterone receptor, this compound came in with an AC50 greater than 30 µM.
On to `CCC(C(=O)O)c1ccc(N2Cc3ccccc3C2=O)cc1` (centres undefined) [INDOBUFEN], for which the AC50 (in assay [1]; in assay [2]; on Cannabinoid receptor 1; at Endothelin-1 receptor; in assay [3]; on Mu-type opioid receptor) was greater than 30 µM throughout. Moreover, the AC50 (on Progesterone receptor; in assay [4]) was greater than 30 µM in each case.
As to `CCOC(=O)[N-]c1cn(N2CCOCC2)n[o+]1` [MOLSIDOMINE], the concentration at half-maximal activity (AC50) (in assay [1]; in assay [2]; on Cannabinoid receptor 1; on Endothelin-1 receptor; in assay [3]; on Mu-type opioid receptor) was greater than 30 µM throughout. This compound also came in with a concentration at half-maximal activity (AC50) on Progesterone receptor greater than 30 µM.
